Measured values as given in article PMC6710338, “Turning a Collagenesis-Inducing Peptide Into a Potent Antibacterial and Antibiofilm Agent Against Multidrug-Resistant Gram-Negative Bacteria” (Frontiers in Microbiology, 2019).
Like-named read-outs stand apart in the source and are kept apart here. Square brackets hold non-standard residues; d marks the D form. Peptide text beside a SMILES is read from it. * marks the point of attachment. Palmitoyl = CCCCCCCCCCCCCCCC(=O)*; βAla = NCCC(=O)O

Tests used:
E. coli ATCC 25922 = experiment: MIC, broth microdilution (CLSI), ATCC reference strain; type: cell-based, Escherichia coli
Procedure: (§1) The minimum inhibitory concentration (MIC) of synthetic peptides was determined using the broth microdilution method in cation-adjusted Mueller-Hinton broth (MHB2 – Sigma-Aldrich, St. Louis, MO, United States), according to the recommendations of the Clinical and Laboratory Standards Institute ([CLSI, 2012]), against four reference strains, namely, P. aeruginosa ATCC 27853, E. coli ATCC 25922, S. aureus ATCC 25923 and Enterococcus faecalis ATCC 29212. MIC values of peptide 3.1-PP4 were also determined against MDR clinical isolates of P. aeruginosa (PA002, PA004, Pa3, Pa4), E. coli (Ec1, Ec2, EC001, EC002, EC003) and K. pneumoniae (KP004, KP007, KP010). The peptides were tested in the concentration range of 1–1024 μg/mL. The minimum bactericidal concentration (MBC) was determined as previously reported ([Bessa et al., 2018]). According to CLSI guidelines for antimicrobial susceptibility testing, MIC values were determined for all peptides against ATCC reference strains of two Gram-positive (S. aureus ATCC 25923 and E. faecalis ATCC 29212), and two Gram-negative (P. aeruginosa ATCC 27853 and E. coli ATCC 25922) bacterial species, and are shown in Table 2.

S. aureus ATCC 25923 = experiment: as above; type: cell-based, Staphylococcus aureus
Procedure: as §1

P. aeruginosa ATCC 27853 = experiment: as above; type: cell-based, Pseudomonas aeruginosa
Procedure: as §1

E. faecalis ATCC 29212 = experiment: as above; type: cell-based, Enterococcus faecalis
Procedure: as §1

HFF-1 cells = type: cell-based, human
Procedure: Immortalized human foreskin fibroblasts (HFF-1) were grown as a monolayer from passage number 8–16. For routine maintenance, HFF-1 cells were cultured in Dulbecco’s Modified Eagle Medium (DMEM, from Cell Lines Service) supplemented with 15% fetal bovine serum (FBS, from CLS) and 1% antibiotic/antimycotic solution (100 units/mL of penicillin, 100 μg/mL of streptomycin and 0.25 μg/mL of amphotericin B, from Sigma-Aldrich, St. Louis, MO, United States) at 37°C in an humidified atmosphere with 5% CO2. Cells were harvested by trypsinization [0.25% (w/v) trypsin-EDTA4Na, Sigma-Aldrich, St. Louis, MO, United States] twice a week.
The cytotoxicity of synthetic peptides to HFF-1 cells was evaluated using the standard MTT assay. Briefly, cells were seeded at a density of 8 × 10^4 cells/well onto 96-well plate and incubated at 37°C in a 5% CO2 atmosphere. Cells were allowed to grow for 48 h, and serially diluted peptide solutions (0.78–100 μM) were added to the wells. Then, cells were incubated for 72 h at 37°C, after which wells were washed once with phosphate buffered saline (PBS, Sigma-Aldrich, St. Louis, MO, United States), followed by addition of a 0.45 mg/mL MTT solution to each well. Crystals were allowed to form for 1.5 h. Reaction was stopped by rejecting the medium and addition of dimethylsulfoxide (DMSO, Sigma-Aldrich, St. Louis, MO, United States). Absorbance was read at 570 nm (Biotek PowerWave XS).
At the end of the cytotoxicity assays, the number of viable cells was never below that of initially plated cells. As such, data are represented as peptide concentrations causing 50% growth inhibition (IC50) on HFF-1 cells, rather than as lethal dosis values. IC50 values thus obtained are also included in Table 2.

[1] = E. coli ATCC 25922, broth microdilution in cation-adjusted Mueller-Hinton broth (MHB2), CLSI, range tested 1–1024 μg/mL
[2] = S. aureus ATCC 25923, broth microdilution in MHB2, CLSI, range tested 1–1024 μg/mL
[3] = P. aeruginosa ATCC 27853, broth microdilution in MHB2, CLSI, range tested 1–1024 μg/mL
[4] = E. faecalis ATCC 29212, broth microdilution in MHB2, CLSI, range tested 1–1024 μg/mL

SMILES	MIC (E. coli ATCC 25922; ATCC 25922)	MIC (S. aureus ATCC 25923; ATCC 25923)	MIC (P. aeruginosa ATCC 27853; ATCC 27853)	MIC (E. faecalis ATCC 29212; ATCC 29212)	IC50 (HFF-1 cells; 72 h)	MIC (E. coli ATCC 25922; E. coli ATCC 25922, broth microdilution in MHB2, CLSI, value in parentheses)	MIC (S. aureus ATCC 25923; S. aureus ATCC 25923, broth microdilution in MHB2, CLSI, value in parentheses)	MIC (P. aeruginosa ATCC 27853; P. aeruginosa ATCC 27853, broth microdilution in MHB2, CLSI, value in parentheses)	MIC (E. faecalis ATCC 29212; E. faecalis ATCC 29212, broth microdilution in MHB2, CLSI, value in parentheses)	IC50 (HFF-1 cells; 50% growth inhibition, MTT, 72 h incubation at 37°C, 0.78–100 μM, absorbance 570 nm, read-out: IC50 ± SEM on HFF-1 cells)	MIC (E. coli ATCC 25922; [1])	MIC (S. aureus ATCC 25923; [2])	MIC (P. aeruginosa ATCC 27853; [3])	MIC (E. faecalis ATCC 29212; [4])
C[C@@H](O)[C@H](NC(=O)[C@@H](NC(=O)[C@@H](N)CCCCN)[C@@H](C)O)C(=O)N[C@@H](CCCCN)C(=O)N[C@@H](CO)C(N)=O [PP4, reference compound] (H-KTTKS-NH2)	> 1820 µM	> 1820 µM	> 1820 µM	> 1820 µM	> 100 µM	–	–	–	–	–	–	–	–	–
CC(C)C[C@H](NC(=O)[C@H](CC(C)C)NC(=O)[C@H](CCCCN)NC(=O)[C@H](CC(C)C)NC(=O)[C@H](CC(C)C)NC(=O)[C@H](Cc1c[nH]c2ccccc12)NC(=O)[C@H](CCCCN)NC(=O)[C@H](CC(C)C)NC(=O)[C@H](CC(C)C)NC(=O)[C@H](CCCCN)NC(=O)[C@H](CCCCN)NC(=O)[C@H](CO)NC(=O)[C@H](CCCCN)NC(=O)[C@@H](NC(=O)[C@@H](NC(=O)[C@@H](N)CCCCN)[C@@H](C)O)[C@@H](C)O)C(N)=O [PP4-3.1] (H-KTTKSKKLLKWLLKLL-NH2)	2 µM	4 µM	1 µM	8 µM	25 ± 2 µM	–	–	–	–	–	–	–	–	–
CC(C)C[C@H](NC(=O)[C@H](CC(C)C)NC(=O)[C@H](CCCCN)NC(=O)[C@H](CC(C)C)NC(=O)[C@H](CC(C)C)NC(=O)[C@H](Cc1c[nH]c2ccccc12)NC(=O)[C@H](CCCCN)NC(=O)[C@H](CC(C)C)NC(=O)[C@H](CC(C)C)NC(=O)[C@H](CCCCN)NC(=O)[C@H](CCCCN)NC(=O)CCNC(=O)[C@H](CO)NC(=O)[C@H](CCCCN)NC(=O)[C@@H](NC(=O)[C@@H](NC(=O)[C@@H](N)CCCCN)[C@@H](C)O)[C@@H](C)O)C(N)=O [PP4-β-ala-3.1] (H-KTTKS[βAla]KKLLKWLLKLL-NH2)	2 µM	4 µM	2 µM	4 µM	24 ± 2 µM	–	–	–	–	–	–	–	–	–
CC(C)C[C@H](NC(=O)[C@H](CC(C)C)NC(=O)[C@H](CCCCN)NC(=O)[C@H](CC(C)C)NC(=O)[C@H](CC(C)C)NC(=O)[C@H](Cc1c[nH]c2ccccc12)NC(=O)[C@H](CCCCN)NC(=O)[C@H](CC(C)C)NC(=O)[C@H](CC(C)C)NC(=O)[C@H](CCCCN)NC(=O)[C@@H](N)CCCCN)C(N)=O [Peptide 3.1, reference compound] (H-KKLLKWLLKLL-NH2)	–	–	–	–	–	6 µM	3 µM	3 µM	3 to 6 µM	50 ± 3 µM	–	–	–	–
CCCCCCCCCCCCCCCC(=O)N[C@@H](CCCCN)C(=O)N[C@@H](CCCCN)C(=O)N[C@@H](CC(C)C)C(=O)N[C@@H](CC(C)C)C(=O)N[C@@H](CCCCN)C(=O)N[C@@H](Cc1c[nH]c2ccccc12)C(=O)N[C@@H](CC(C)C)C(=O)N[C@@H](CC(C)C)C(=O)N[C@@H](CCCCN)C(=O)N[C@@H](CC(C)C)C(=O)N[C@@H](CC(C)C)C(=O)N[C@@H](CCCCN)C(=O)N[C@H](C(=O)N[C@H](C(=O)N[C@@H](CCCCN)C(=O)N[C@@H](CO)C(N)=O)[C@@H](C)O)[C@@H](C)O [Peptide C16-3.1-PP4] (Palmitoyl-KKLLKWLLKLLKTTKS-NH2)	29 µM	59 µM	29 µM	30 to 59 µM	17.8 ± 0.5 µM	–	–	–	–	–	64 µg/mL	128 µg/mL	64 µg/mL	64 to 128 µg/mL
CCCCCCCCCCCCCCCC(=O)N[C@@H](CCCCN)C(=O)N[C@@H](CCCCN)C(=O)N[C@@H](CC(C)C)C(=O)N[C@@H](CC(C)C)C(=O)N[C@@H](CCCCN)C(=O)N[C@@H](Cc1c[nH]c2ccccc12)C(=O)N[C@@H](CC(C)C)C(=O)N[C@@H](CC(C)C)C(=O)N[C@@H](CCCCN)C(=O)N[C@@H](CC(C)C)C(=O)N[C@@H](CC(C)C)C(N)=O [Peptide C16-3.1] (Palmitoyl-KKLLKWLLKLL-NH2)	78.4 µM	> 627 µM	78.4 µM	256 µg/mL	23.4 ± 0.7 µM	–	–	–	–	–	128 µg/mL	> 1024 µg/mL	128 µg/mL	–
CCCCCCCCCCCCCCCC(=O)N[C@@H](CCCCN)C(=O)N[C@H](C(=O)N[C@H](C(=O)N[C@@H](CCCCN)C(=O)N[C@@H](CO)C(N)=O)[C@@H](C)O)[C@@H](C)O [Peptide C16-PP4, reference compound] (Palmitoyl-KTTKS-NH2)	–	–	–	–	> 100 µM	–	–	–	–	–	–	–	–	–
CCCCCCCCCCCCCCCC(=O)N[C@@H](CCCCN)C(=O)N[C@H](C(=O)N[C@H](C(=O)N[C@@H](CCCCN)C(=O)N[C@@H](CO)C(=O)N[C@@H](CCCCN)C(=O)N[C@@H](CCCCN)C(=O)N[C@@H](CC(C)C)C(=O)N[C@@H](CC(C)C)C(=O)N[C@@H](CCCCN)C(=O)N[C@@H](Cc1c[nH]c2ccccc12)C(=O)N[C@@H](CC(C)C)C(=O)N[C@@H](CC(C)C)C(=O)N[C@@H](CCCCN)C(=O)N[C@@H](CC(C)C)C(=O)N[C@@H](CC(C)C)C(N)=O)[C@@H](C)O)[C@@H](C)O [Peptide C16-PP4-3.1] (Palmitoyl-KTTKSKKLLKWLLKLL-NH2)	15 µM	29 µM	29 µM	29 µM	4.98 ± 0.08 µM	–	–	–	–	–	32 µg/mL	64 µg/mL	64 µg/mL	64 µg/mL
